# Measured values reported in patent US6849256B1, “Inhibition of pathogens by probiotic bacteria” (priority 1999, dated 2005).
# System: Bacillus coagulans, subspecies Hammer (ATCC-31284)
# Experiment: Kirby-Bauer antibiotic susceptibility testing of Bacillus coagulans
# Format: cell-based
# Conditions: inhibition zone diameter (disk diffusion)
row,Molecule,"Susceptibility of Bacillus coagulans to the antibiotic, Kirby-Bauer testing"
1,CC1(C)S[C@@H]2[C@H](NC(=O)[C@H](N)c3ccccc3)C(=O)N2[C@H]1C(=O)O [ampicillin],Susceptible
2,O=C(O)c1cn(C2CC2)c2cc(N3CCNCC3)c(F)cc2c1=O [ciprofloxacin],Susceptible
3,CC[C@H]1OC(=O)[C@H](C)[C@@H](O[C@H]2C[C@@](C)(OC)[C@@H](O)[C@H](C)O2)[C@H](C)[C@@H](O[C@@H]2O[C@H](C)C[C@H](N(C)C)[C@H]2O)[C@](C)(O)C[C@@H](C)C(=O)[C@H](C)[C@@H](O)[C@]1(C)O [erythromycin],Susceptible
4,Cc1onc(-c2ccccc2)c1C(=O)N[C@@H]1C(=O)N2[C@@H]1SC(C)(C)[C@@H]2C(=O)O [oxacillin],Susceptible
5,CO[C@H]1/C=C/O[C@@]2(C)Oc3c(C)c(O)c4c(O)c(c(/C=N/N5CCN(C)CC5)c(O)c4c3C2=O)NC(=O)/C(C)=C\C=C\[C@H](C)[C@H](O)[C@@H](C)[C@@H](O)[C@@H](C)[C@H](OC(C)=O)[C@@H]1C [rifampin],Susceptible
6,CN[C@H](CC(C)C)C(=O)N[C@H]1C(=O)N[C@@H](CC(N)=O)C(=O)N[C@H]2C(=O)N[C@H]3C(=O)N[C@H](C(=O)N[C@H](C(=O)O)c4cc(O)cc(O)c4-c4cc3ccc4O)[C@H](O)c3ccc(c(Cl)c3)Oc3cc2cc(c3O[C@@H]2O[C@H](CO)[C@@H](O)[C@H](O)[C@H]2O[C@H]2C[C@](C)(N)[C@H](O)[C@H](C)O2)Oc2ccc(cc2Cl)[C@H]1O [vancomycin],Susceptible
7,gentamicin,Susceptible
8,trimethoprim-sulfamethoxazole,Susceptible

# System: Bacillus coagulans, subspecies Hammer (ATCC-31284)
# Experiment: Vitek machine-based antibiotic susceptibility testing of Bacillus coagulans
# Format: cell-based
# Conditions: 500 μg/ml
row,Molecule,"Susceptibility of Bacillus coagulans to the antibiotic, Vitek testing"
1,gentamicin,Susceptible

# Same assay, conditions: 2,000 μg/ml
row,Molecule,"Susceptibility of Bacillus coagulans to the antibiotic, Vitek testing"
1,[H]/N=C(/N)N[C@H]1[C@H](O)[C@@H](O)[C@H](O[C@@H]2O[C@@H](C)[C@](O)(C=O)[C@H]2O[C@@H]2O[C@@H](CO)[C@H](O)[C@@H](O)[C@@H]2NC)[C@@H](N/C(N)=N\[H])[C@@H]1O [streptomycin],Susceptible

# Same assay, conditions: optical density of culture
row,Molecule,"Susceptibility of Bacillus coagulans to the antibiotic, Vitek testing"
1,O=C(N[C@H](CO)[C@H](O)c1ccc([N+](=O)[O-])cc1)C(Cl)Cl [chloramphenicol],Susceptible
2,CCn1cc(C(=O)O)c(=O)c2cc(F)c(N3CCNCC3)cc21 [norfloxacin],Susceptible
3,CN[C@H](CC(C)C)C(=O)N[C@H]1C(=O)N[C@@H](CC(N)=O)C(=O)N[C@H]2C(=O)N[C@H]3C(=O)N[C@H](C(=O)N[C@H](C(=O)O)c4cc(O)cc(O)c4-c4cc3ccc4O)[C@H](O)c3ccc(c(Cl)c3)Oc3cc2cc(c3O[C@@H]2O[C@H](CO)[C@@H](O)[C@H](O)[C@H]2O[C@H]2C[C@](C)(N)[C@H](O)[C@H](C)O2)Oc2ccc(cc2Cl)[C@H]1O [vancomycin],Susceptible
4,penicillin,Susceptible
